Assay results from ChEMBL document CHEMBL1201862, “PubChem BioAssay data set” (2004).
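Cultured in 96-well plates, cells were exposed to test compound for 48 hours across five concentrations. At the GI50, growth is halved.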 Active and inactive are the calls of the source. No stated cut-off is given here; in the data, active = GI50 up to about 1.1 µM and inactive = higher.

Legend:
Assay in all cases: NCI-60 cell line screen, 48 h
OVCAR-3 = tested on: OVCAR-3
NCI-H226 = tested on: NCI-H226
U-251 = tested on: U-251
HCT-15 = tested on: HCT-15
SF-295 = tested on: SF-295
Hs-578T = tested on: Hs-578T
SK-MEL-2 = tested on: SK-MEL-2
A549 = tested on: A549
T47D = tested on: T47D
MCF7 = tested on: MCF7
UACC-62 = tested on: UACC-62
HOP-62 = tested on: HOP-62
IGROV-1 = tested on: IGROV-1
HT-29 = tested on: HT-29
SNB-75 = tested on: SNB-75
HL-60 = tested on: HL-60
SF-539 = tested on: SF-539
NCI/ADR-RES = tested on: NCI/ADR-RES
SK-MEL-28 = tested on: SK-MEL-28
NCI-H23 = tested on: NCI-H23

Compound	GI50 (OVCAR-3)	GI50 (NCI-H226)	GI50 (U-251)	GI50 (HCT-15)	GI50 (SF-295)	GI50 (Hs-578T)	GI50 (SK-MEL-2)	GI50 (A549)	GI50 (T47D)	GI50 (MCF7)	GI50 (UACC-62)	GI50 (HOP-62)	GI50 (IGROV-1)	GI50 (HT-29)	GI50 (SNB-75)	GI50 (HL-60)	GI50 (SF-539)	GI50 (NCI/ADR-RES)	GI50 (SK-MEL-28)	GI50 (NCI-H23)
O=[N+]([O-])c1cccnc1-n1cnc2ccccc21	54.6 µM (inactive)	> 100 µM (inactive)	> 100 µM (inactive)	> 100 µM	> 100 µM (inactive)	> 100 µM (inactive)	> 100 µM (inactive)	> 100 µM (inactive)	> 100 µM (inactive)	> 100 µM (inactive)	> 100 µM (inactive)	> 100 µM (inactive)	> 100 µM (inactive)	> 100 µM (inactive)	> 100 µM (inactive)	48 µM (inactive)	> 100 µM (inactive)	> 100 µM (inactive)	> 100 µM (inactive)	
O=C(Cn1c(C(=O)c2ccccc2)nc2ccccc21)c1ccccc1	> 100 µM (inactive)	> 100 µM (inactive)	> 77.1 µM (inactive)	> 100 µM	67 µM (inactive)	30.5 µM (inactive)	> 100 µM (inactive)	> 96.4 µM (inactive)	> 100 µM (inactive)	> 100 µM (inactive)	> 56.6 µM (inactive)	26.5 µM (inactive)	> 31.6 µM (inactive)	19.2 µM (inactive)	> 100 µM (inactive)	7.1 µM (inactive)	> 100 µM (inactive)	> 100 µM (inactive)	> 100 µM (inactive)	> 100 µM (inactive)
O=C1C=CC2(O[C@H](c3ccccc3)[C@@H](c3ccccc3)O2)[C@H](Sc2ccccc2O)C1	0.418 µM (active)	2.72 µM (inactive)	0.498 µM (active)	0.221 µM	6.43 µM (inactive)	0.836 µM (active)	2.02 µM (inactive)	2.73 µM (inactive)	0.785 µM (active)	0.27 µM (active)	0.841 µM (active)	1.85 µM (inactive)	0.281 µM (active)	0.398 µM (active)	3.28 µM (inactive)	0.264 µM (active)	0.757 µM (active)	0.414 µM (active)	1.36 µM (inactive)	0.708 µM (active)
COc1ccc(OC)c2nc3c(C(=O)NCCN(C)C)cccc3nc12	4.93 µM (inactive)	4.66 µM (inactive)	4.21 µM (inactive)	4.74 µM	3.99 µM (inactive)	5.89 µM (inactive)	8.45 µM (inactive)	3.37 µM (inactive)	14.1 µM (inactive)	3.48 µM (inactive)	7.71 µM (inactive)	4.55 µM (inactive)	4.59 µM (inactive)	1.8 µM (inactive)	11.7 µM (inactive)	3.18 µM (inactive)	4.5 µM (inactive)	5.25 µM (inactive)	7.83 µM (inactive)	3.7 µM (inactive)
CCN(CC)c1ccc2cc(-c3csc(-c4ccc(N(C)C)cc4)n3)c(=O)oc2c1		> 100 µM (inactive)	> 100 µM (inactive)	> 100 µM	> 100 µM (inactive)	> 100 µM (inactive)	> 100 µM (inactive)	> 100 µM (inactive)	> 100 µM (inactive)	> 100 µM (inactive)	> 100 µM (inactive)	> 100 µM (inactive)	> 100 µM (inactive)	> 100 µM (inactive)	23.1 µM (inactive)	> 100 µM (inactive)	> 100 µM (inactive)	> 100 µM (inactive)	> 100 µM (inactive)	
COC(=O)C(CCSC)NC(=O)Cc1ccc(C(=O)c2ccccc2)cc1 (stereo not drawn)	67.6 µM (inactive)	78.5 µM (inactive)	34.6 µM (inactive)	36.1 µM	42.5 µM (inactive)	33.1 µM (inactive)	48.6 µM (inactive)	38.4 µM (inactive)	59.2 µM (inactive)	47.3 µM (inactive)	51.2 µM (inactive)	88.1 µM (inactive)	64.3 µM (inactive)	25.8 µM (inactive)	40.6 µM (inactive)	32.7 µM (inactive)		26.7 µM (inactive)	> 100 µM (inactive)	44.8 µM (inactive)
CC[C@@]1(OC(=O)C(N)CCC(=O)O)C(=O)OCc2c1cc1n(c2=O)Cc2cc3ccccc3nc2-1 (stereo partly drawn)	0.417 µM (active)	0.0502 µM (active)	0.0202 µM (active)	0.453 µM	0.0213 µM (active)	7.05 µM (inactive)	1.12 µM (active)	0.0348 µM (active)	0.0267 µM (active)	< 0.01 µM (active)	< 0.0152 µM (active)	< 0.0124 µM (active)	0.513 µM (active)	0.261 µM (active)	0.0526 µM (active)	0.0208 µM (active)	0.018 µM (active)	< 0.01 µM (active)	1.35 µM (inactive)	0.0345 µM (active)
O=C(Cn1c(=O)oc2ccc(C(=O)c3ccc(F)cc3)cc21)c1ccccc1		> 100 µM (inactive)	> 100 µM (inactive)	> 100 µM		> 100 µM (inactive)	> 100 µM (inactive)	55.8 µM (inactive)	93.5 µM (inactive)	> 100 µM (inactive)	> 100 µM (inactive)	> 100 µM (inactive)	> 100 µM (inactive)	42.7 µM (inactive)	> 100 µM (inactive)	> 100 µM (inactive)	> 100 µM (inactive)	> 100 µM (inactive)	> 100 µM (inactive)	> 100 µM (inactive)
CN(Cc1c[n+]([O-])c2nc(N)nc(N)c2n1)c1ccc(C(=O)NC23CC4CC(CC(C4)C2)C3)cc1	> 100 µM (inactive)	> 100 µM (inactive)	34.5 µM (inactive)	> 100 µM	> 100 µM (inactive)	10.6 µM (inactive)	> 100 µM (inactive)		75.2 µM (inactive)	47.8 µM (inactive)	> 100 µM (inactive)	> 100 µM (inactive)	54.3 µM (inactive)		20.2 µM (inactive)	31 µM (inactive)		> 100 µM (inactive)	23.1 µM (inactive)	> 100 µM (inactive)
CCCCCCCCCc1cc(-c2ccc(C=O)s2)sc1-c1ccc(C=O)s1	16.7 µM (inactive)	3.04 µM (inactive)	10 µM (inactive)	24.8 µM	32.7 µM (inactive)	17.9 µM (inactive)	25.5 µM (inactive)	53.1 µM (inactive)	17.1 µM (inactive)	14.3 µM (inactive)	7.26 µM (inactive)	27.7 µM (inactive)	21 µM (inactive)	39.5 µM (inactive)	27 µM (inactive)	16.8 µM (inactive)	41.1 µM (inactive)	19.6 µM (inactive)	33.7 µM (inactive)	20.1 µM (inactive)
CCN(CC)CC(=O)Nc1c(C(N)=O)nnn1Cc1cc(Cl)c(C(=O)c2ccc(Cl)cc2)c(Cl)c1	16.9 µM (inactive)	14.4 µM (inactive)	19.5 µM (inactive)	16.6 µM	17.4 µM (inactive)	14.3 µM (inactive)	14.9 µM (inactive)	22.3 µM (inactive)	15.9 µM (inactive)	17.1 µM (inactive)	17.6 µM (inactive)	18.6 µM (inactive)	21.4 µM (inactive)	19.6 µM (inactive)	21 µM (inactive)	15.5 µM (inactive)	16.5 µM (inactive)	15.8 µM (inactive)	18.5 µM (inactive)	14.6 µM (inactive)
C1CCN2CC3CCCN4CCCC(C2C1)C34 (stereo not drawn)	> 100 µM (inactive)	> 100 µM (inactive)	> 100 µM (inactive)	> 100 µM	> 100 µM (inactive)	> 100 µM (inactive)	> 100 µM (inactive)	> 100 µM (inactive)	> 100 µM (inactive)	> 100 µM (inactive)	> 100 µM (inactive)	> 100 µM (inactive)	> 100 µM (inactive)	> 100 µM (inactive)	50.1 µM (inactive)	> 100 µM (inactive)	> 100 µM (inactive)	> 100 µM (inactive)	> 100 µM (inactive)	> 100 µM (inactive)
COC(=O)C1=C(O)C(C(=O)OC)[C@]2(O)[C@H](C(=O)OC)[C@H]1C[C@@H](c1cccc(OC)c1)[C@H]2C(=O)OC (stereo partly drawn)		28.8 µM (inactive)	24.2 µM (inactive)	26.3 µM	35.8 µM (inactive)	18.7 µM (inactive)	17.7 µM (inactive)	23.6 µM (inactive)	30.5 µM (inactive)	23.4 µM (inactive)	16.9 µM (inactive)	31 µM (inactive)	39 µM (inactive)	34.9 µM (inactive)	27.5 µM (inactive)	0.207 µM (active)	32.3 µM (inactive)	29.4 µM (inactive)	37.6 µM (inactive)	30.4 µM (inactive)
COc1ccc2oc(S(=O)(=O)N3CC(CCl)c4ccc([N+](=O)[O-])cc43)cc2c1 (stereo not drawn)	0.108 µM (active)	0.127 µM (active)	0.0955 µM (active)	0.0703 µM	0.0374 µM (active)	0.0454 µM (active)	0.12 µM (active)	0.274 µM (active)	20.2 µM (inactive)	0.0401 µM (active)	0.055 µM (active)	0.0381 µM (active)	0.0815 µM (active)	0.146 µM (active)	0.0933 µM (active)	0.0579 µM (active)	0.0607 µM (active)	0.0596 µM (active)		0.36 µM (active)
NNS(=O)(=O)c1cc(C(=O)O)cc(C(=O)O)c1	> 100 µM (inactive)	> 100 µM (inactive)	> 100 µM (inactive)	> 100 µM	> 100 µM (inactive)	1.09 µM (active)	> 100 µM (inactive)	> 100 µM (inactive)	> 100 µM (inactive)	> 100 µM (inactive)	> 100 µM (inactive)	> 100 µM (inactive)	> 100 µM (inactive)	> 100 µM (inactive)		> 100 µM (inactive)	> 100 µM (inactive)	> 100 µM (inactive)	> 100 µM (inactive)	> 100 µM (inactive)
